Data on eight compounds can be found in patent US6703347B2, “Isothiazole derivatives and their use as pesticides” (Syngenta Limited, priority 2000, dated 2004).

Where two headings read alike, the source gives them in different places.

Broadly, the melting point is the temperature, or range, at which the solid turns liquid. For orientation: mortality means the share of the test organisms that died.

Data set [1] relates to Puccinia recondita (PUCCRT). Briefly: foliar fungicide test on wheat (Example 19). It is filed as in vivo. As to conditions: 100 ppm foliar (Prot) application on wheat; inoculated 6 hours or one day after application.
Data set [2] has as its system Blumeria graminis f.sp. tritici (ERYSGT). Briefly: foliar fungicide test on wheat (Example 19). In kind it is in vivo. The note with it: 100 ppm foliar (Prot) application on wheat; inoculated 6 hours or one day after application.
The test system of data set [3] is two-spotted spider mites (Tetranychus urticae). The note with it: liquid composition containing 500 ppm by weight of compound.
Method: (§1) The activities of individual compounds of formula (I) were determined using a variety of pests. The pests were treated with a liquid composition containing 500 parts per million (ppm) by weight of a compound of formula (I). Each composition was made by dissolving the compound in an acetone and ethanol (50:50 by volume) mixture and diluting the solution with water containing 0.05% by volume of a wetting agent, SYNPERONIC NP8, until the liquid composition contained the required concentration of the compound.
(§2) The test procedure adopted with regard to each pest was essentially the same and comprised supporting a number of the pests on a medium, which was usually a substrate, a host plant or a foodstuff on which the pests feed, and treating either or both the medium and the pests with a composition. Pest mortality was assessed usually between two and five days after treatment.
(§3) Similar tests were conducted against, independently, two-spotted spider mites (Tetranychus urticae), fruit flies (Drosophila melanogaster), tobacco budworms (Heliothis virescens), diamond back moth (Plutella xylostella) and corn root worm (Diabrotica balteata).
The subject of data set [4] is peach potato aphids (Myzus persicae). As to conditions: 500 ppm by weight; infested Chinese cabbage leaves sprayed; mortality assessed after three days.
The subject of data set [5] is Plasmopara viticola (PLASVI). Briefly: foliar fungicide test on vines (Example 19). In kind it is in vivo. As to conditions: 100 ppm foliar (Prot) application on vines; inoculated 6 hours or one day after application.
Data set [6] deals with Pyricularia oryzae (PYRIOR). It is filed as in vivo. The note with it: 100 ppm foliar spray on rice; inoculated one day after chemical application (Prot).
The subject of data set [7] is Puccinia recondita (PUCCRT). Briefly: foliar fungicide test on wheat (Example 18). It is filed as in vivo. As to conditions: 100 ppm foliar spray on wheat; inoculated one day after chemical application (Prot).
Data set [8] concerns Uncinula necator (UNCINE). Briefly: foliar fungicide test on vines (Example 18). In kind it is in vivo. As to conditions: 100 ppm foliar spray on vines; for UNCINE Erad, PRCO (Percentage Reduction from Control): inoculated one day before chemical application (Erad).
In data set [9] the test system is Phytophthora infestans lycopersici (PHYTIN). In kind it is in vivo. As to conditions: 100 ppm foliar spray on tomatoes; inoculated one day after chemical application (Prot).
The subject of data set [10] is diamond back moth (Plutella xylostella). Briefly: pesticidal test against diamond back moth. The note with it: liquid composition containing 500 ppm by weight of compound.
Method: as §1, §2, §3
The subject of data set [11] is fruit flies (Drosophila melanogaster). Briefly: pesticidal test against fruit flies. The note with it: liquid composition containing 500 ppm by weight of compound.
Method: as §1, §2, §3
The test system of data set [12] is corn root worm (Diabrotica balteata). Briefly: pesticidal test against corn root worm. As to conditions: liquid composition containing 500 ppm by weight of compound.
Method: as §1, §2, §3
Data set [13] concerns Phytophthora infestans lycopersici (PHYTIN). It is filed as in vivo. The note with it: 100 ppm foliar (Prot) application on tomatoes; inoculated 6 hours or one day after application.
Data set [14] concerns peach potato aphids (Myzus persicae). Briefly: whole plant or invertebrate. The note with it: 72 h, read-out: mortality (score) Mp.
Data set [15] relates to Venturia inaequalis (VENTIN). Briefly: foliar fungicide test on apples (Example 18). As to conditions: 100 ppm foliar spray on apples; inoculated one day after chemical application (Prot). In kind it is in vivo.
The subject of data set [16] is tobacco budworms (Heliothis virescens). Briefly: pesticidal test against tobacco budworms. The note with it: liquid composition containing 500 ppm by weight of compound.
Method: as §1, §2, §3

The compound `Cc1nsc(NC(=O)Cc2ccc3oc(CC(C)(C)C)nc3c2)c1Cl` yielded a melting point of 144 to 145 °C.

For `Cc1nsc(NC(=O)C(F)c2ccc3oc(CC(C)(C)C)nc3c2)c1Cl` (stereo not drawn) [Table 5 Compound 7], in [1], the “PUCCRT Prot, PRCO (Percentage Reduction from Control)” value was 96. In addition, the “ERYSGT Prot, PRCO (Percentage Reduction from Control)” value in [2] turned out to be 100. In data set [3], the “mortality (score) Tu” value is on record as 9 (9 indicates 80-100% mortality). Also, the “mortality (score) Mp” value in [4] is 9 (9 indicates 80-100% mortality). For the same compound, the “PLASVI Prot, PRCO (Percentage Reduction from Control)” value in [5] is reported as 98.

As for `C=C(C(=O)Nc1snc(C)c1Cl)c1ccc2oc(CC(C)(C)C)nc2c1` [Table 11 Compound 7], the “PYRIOR Prot, PRCO (Percentage Reduction from Control)” value in data set [6] came out at 66. Besides, the “PUCCRT Prot, PRCO (Percentage Reduction from Control)” value in [7] turned out to be 27. Also, the “UNCINE Prot, PRCO (Percentage Reduction from Control)” value in [8] (inoculated one day after chemical application (Prot)) is listed as 73. Also, the “PHYTIN Prot, PRCO (Percentage Reduction from Control)” value in data set [9] worked out at 50.

As for `Cc1nsc(NC(=O)C(=CO)c2ccc3oc(CC(C)(C)C)nc3c2)c1Cl` [Table 12 Compound 7], the “PUCCRT Prot, PRCO (Percentage Reduction from Control)” value in data set [1] was 97. In addition, in [2], the “ERYSGT Prot, PRCO (Percentage Reduction from Control)” value was 78. The “mortality (score) Tu” value in data set [3] is recorded as 9 (9 indicates 80-100% mortality). In [10], the “mortality (score) Px” value was 9 (9 indicates 80-100% mortality). For the same compound, the “mortality (score) Mp” value in [4] was 0 (represents less than 40% mortality). Further, the “PLASVI Prot, PRCO (Percentage Reduction from Control)” value in data set [5] is recorded as 100. Moreover, the “mortality (score) Dm” value in data set [11] is listed as 0 (represents less than 40% mortality). For the same compound, in data set [12], the “mortality (score) Db” value was 9 (9 indicates 80-100% mortality).

In the case of `COC=C(C(=O)Nc1snc(C)c1Cl)c1ccc2oc(CC(C)(C)C)nc2c1` [Table 13 Compound 7], the “mortality (score) Px” value in data set [10] was 0 (represents less than 40% mortality). Besides, the “mortality (score) Mp” value in [4] is on record as 9 (9 indicates 80-100% mortality). The “PLASVI Prot, PRCO (Percentage Reduction from Control)” value in data set [5] turned out to be 100. The “PHYTIN Prot, PRCO (Percentage Reduction from Control)” value in data set [13] amounted to 100. Further, in [11], the “mortality (score) Dm” value is listed as 0 (represents less than 40% mortality).

Consider `Cc1nsc(NC(=O)C(=CN(C)C)c2ccc3oc(CC(C)(C)C)nc3c2)c1Cl` [Table 14 Compound 7, N-(4-chloro-3-methylisothiazol-5-yl)-α-[(dimethylamino)methylene]-[2-(2,2-dimethylpropyl)benzoxazol-5-yl]acetamide], for which the mortality at 500 ppm in [14] was in the range of 80 to 100%. Besides, the “PYRIOR Prot, PRCO (Percentage Reduction from Control)” value in data set [6] is recorded as 92. Moreover, the “PUCCRT Prot, PRCO (Percentage Reduction from Control)” value in [7] is 98. Also, in data set [2], the “ERYSGT Prot, PRCO (Percentage Reduction from Control)” value is recorded as 83. Moreover, the “mortality (score) Tu” value in [3] was 9 (9 indicates 80-100% mortality). Also, the “VENTIN Prot, PRCO (Percentage Reduction from Control)” value in [15] is 85. In addition, the “UNCINE Erad, PRCO (Percentage Reduction from Control)” value in data set [8] is 100. The “PHYTIN Prot, PRCO (Percentage Reduction from Control)” value in data set [9] was 0.

Regarding `CCNC=C(C(=O)Nc1snc(C)c1Cl)c1ccc2oc(CC(C)(C)C)nc2c1` [Table 15 Compound 7, N-(4-chloro-3-methylisothiazol-5-yl)-α-[(ethylamino)methylene]-[2-(2,2-dimeth-ylpropyl)benzoxazol-5-yl]acetamide], the mortality at 500 ppm in [14] lay in the range of 80 to 100%. The “PYRIOR Prot, PRCO (Percentage Reduction from Control)” value in [6] is 57. In addition, the “PUCCRT Prot, PRCO (Percentage Reduction from Control)” value in data set [7] is on record as 100. Moreover, the “mortality (score) Tu” value in data set [3] is on record as 9 (9 indicates 80-100% mortality). For the same compound, in data set [15], the “VENTIN Prot, PRCO (Percentage Reduction from Control)” value is 53. Also, in data set [8], the “UNCINE Erad, PRCO (Percentage Reduction from Control)” value is recorded as 100.

With `Cc1nsc(NC(=O)C(CC#N)c2ccc3oc(CC(C)(C)C)nc3c2)c1Cl` (stereo not drawn) [Table 20 Compound 7], in data set [3], the “mortality (score) Tu” value is given as 9 (9 indicates 80-100% mortality). In addition, the “mortality (score) Px” value in [10] is listed as 9 (9 indicates 80-100% mortality). Further, the “mortality (score) Mp” value in data set [4] was 5 (5 indicates 40-79% mortality). Further, in data set [5], the “PLASVI Prot, PRCO (Percentage Reduction from Control)” value came out at 100. In [13], the “PHYTIN Prot, PRCO (Percentage Reduction from Control)” value stood at 72. Also, the “mortality (score) Dm” value in data set [11] is 0 (represents less than 40% mortality). Also, the “mortality (score) Db” value in [12] is given as 0 (represents less than 40% mortality). In addition, the “mortality (score) Hv” value in data set [16] was 0 (represents less than 40% mortality).
